Assay results taken from PubChem BioAssay AID1963450 (Molecular Pharmacology Branch, DTP, NCI, 2024).
Where “and” joins values, the source holds several entries; their conditions need not be identical. Identical values can stand only once.

Test system: 556581-035-R-J1-PDC complex spheroid growth
Test: Anticancer human tumor 556581-035-R-J1-PDC patient-derived ovarian carcinoma cell line growth inhibition [Asc]
Conditions: for viability, T/C: stronger effect = lower value
In short: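 Stromal components (HUVEC and hMSC) are co-assembled with the cancer cells into multicellular spheroids. Drugs are then added singly or paired, at concentrations falling by half-log increments from a clinically achievable maximum, capped at 10 microM without known Cmax.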

[1] = curve of first compound, second compound 0.01 µM
[2] = curve of first compound, second compound 0.0316 µM
[3] = curve of first compound, second compound 0.1 µM
[4] = curve of first compound, second compound 0.316 µM
[5] = curve of first compound, second compound 1 µM
[6] = second compound 0.01 µM, first compound 0.0316 µM
[7] = second compound 0.01 µM, first compound 0.1 µM
[8] = second compound 0.01 µM, first compound 0.316 µM
[9] = second compound 0.01 µM, first compound 1 µM
[10] = second compound 0.0316 µM, first compound 0.0316 µM
[11] = second compound 0.0316 µM, first compound 0.1 µM
[12] = second compound 0.0316 µM, first compound 0.316 µM
[13] = second compound 0.0316 µM, first compound 1 µM
[14] = second compound 0.1 µM, first compound 0.0316 µM
[15] = second compound 0.1 µM, first compound 0.1 µM
[16] = second compound 0.1 µM, first compound 0.316 µM
[17] = second compound 0.1 µM, first compound 1 µM
[18] = second compound 0.1 µM, first compound 3.16 µM
[19] = second compound 0.1 µM, first compound 10 µM
[20] = second compound 0.316 µM, first compound 0.0316 µM
[21] = second compound 0.316 µM, first compound 0.1 µM
[22] = second compound 0.316 µM, first compound 0.316 µM
[23] = second compound 0.316 µM, first compound 1 µM
[24] = second compound 0.316 µM, first compound 3.16 µM
[25] = second compound 0.316 µM, first compound 10 µM
[26] = second compound 1 µM, first compound 0.0316 µM
[27] = second compound 1 µM, first compound 0.1 µM
[28] = second compound 1 µM, first compound 0.316 µM
[29] = second compound 1 µM, first compound 1 µM
[30] = second compound 1 µM, first compound 3.16 µM
[31] = second compound 1 µM, first compound 10 µM
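Note: spheroids exposed to agents for 7 days before viability read.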

C=CC(=O)N1CCN(c2nc(=O)n(-c3c(C)ccnc3C(C)C)c3nc(-c4c(O)cccc4F)c(F)cc23)C(C)C1 (configuration not stated) + CNC(C)C(=O)NC1CN(S(=O)(=O)c2cccc(S(=O)(=O)N3CCC4CCC(C(=O)NC(c5ccccc5)c5ccccc5)N4C(=O)C(NC(=O)C(C)NC)C3)c2)CCC2CCC(C(=O)NC(c3ccccc3)c3ccccc3)N2C1=O
IC50 [1]: > 10000 nM | IC50 [2]: > 10000 nM | IC50 [3]: > 10000 nM | IC50 [4]: > 10000 nM | IC50 [5]: > 10000 nM | viability, T/C [6]: 88.6% | viability, T/C [7]: 90% | viability, T/C [8]: 82.4% | viability, T/C [9]: 101% | viability, T/C (second compound 0.01 µM, first compound 3.16 µM): 103% | viability, T/C (second compound 0.01 µM, first compound 10 µM): 86.5% | viability, T/C [10]: 95% | viability, T/C [11]: 98% | viability, T/C [12]: 83% | viability, T/C [13]: 91.5% | viability, T/C (second compound 0.0316 µM, first compound 3.16 µM): 94.3% | viability, T/C (second compound 0.0316 µM, first compound 10 µM): 78.8% | viability, T/C [14]: 98.3% | viability, T/C [15]: 81.5% | viability, T/C [16]: 89.1% | viability, T/C [17]: 95.3% | viability, T/C [18]: 91.3% | viability, T/C [19]: 100% | viability, T/C [20]: 92.3% | viability, T/C [21]: 85.2% | viability, T/C [22]: 94.2% | viability, T/C [23]: 79.8% | viability, T/C [24]: 78.9% | viability, T/C [25]: 81.4% | viability, T/C [26]: 79.5% | viability, T/C [27]: 71.5% | viability, T/C [28]: 86.3% | viability, T/C [29]: 74.8% | viability, T/C [30]: 87.2% | viability, T/C [31]: 66.5%

C=CC(=O)N1CCN(c2nc(=O)n(-c3c(C)ccnc3C(C)C)c3nc(-c4c(O)cccc4F)c(F)cc23)C(C)C1 (configuration not stated) + Cc1c(S(C)(=O)=O)c(-c2cc(F)cc(N3CCN(c4ccc(NS(=O)(=O)c5ccc(NC(CCN6CCC(C(=O)OCCCP(=O)(O)O)CC6)CSc6ccccc6)c(S(=O)(=O)C(F)(F)F)c5)cc4)CC3)c2)c(-c2ccc(Cl)cc2)n1C(C)C
IC50 [3]: > 10000 nM | IC50 [4]: > 10000 nM | IC50 [5]: > 10000 nM | IC50 (curve of first compound, second compound 3.16 µM): > 10000 nM | IC50 (curve of first compound, second compound 10 µM): > 10000 nM | viability, T/C [14]: 86.6% | viability, T/C [15]: 83.6% | viability, T/C [16]: 78.8% | viability, T/C [17]: 89.6% | viability, T/C [18]: 80.1% | viability, T/C [19]: 57.9% | viability, T/C [20]: 90.8% | viability, T/C [21]: 98.3% | viability, T/C [22]: 79.1% | viability, T/C [23]: 80% | viability, T/C [24]: 81.8% | viability, T/C [25]: 64.9% | viability, T/C [26]: 71.8% | viability, T/C [27]: 71.6% | viability, T/C [28]: 77.6% | viability, T/C [29]: 71.5% | viability, T/C [30]: 73.6% | viability, T/C [31]: 58.9% | viability, T/C (second compound 3.16 µM, first compound 0.0316 µM): 72.1% | viability, T/C (second compound 3.16 µM, first compound 0.1 µM): 78.1% | viability, T/C (second compound 3.16 µM, first compound 0.316 µM): 62.2% | viability, T/C (second compound 3.16 µM, first compound 1 µM): 72% | viability, T/C (second compound 3.16 µM, first compound 3.16 µM): 66.4% | viability, T/C (second compound 3.16 µM, first compound 10 µM): 56.8% | viability, T/C (second compound 10 µM, first compound 0.0316 µM): 66.8% | viability, T/C (second compound 10 µM, first compound 0.1 µM): 59.5% | viability, T/C (second compound 10 µM, first compound 0.316 µM): 55.9% | viability, T/C (second compound 10 µM, first compound 1 µM): 69.5% | viability, T/C (second compound 10 µM, first compound 3.16 µM): 59.6% | viability, T/C (second compound 10 µM, first compound 10 µM): 46.4%

COc1c(OCCCN2CCOCC2)ccc2c3n(c(=NC(=O)c4cnc(N)nc4)nc12)CCN3
viability, T/C (compound 0.00316 µM): 78.2% and 82.3% and 79.7% | viability, T/C (compound 0.01 µM): 72.5% and 69% and 57% | viability, T/C (compound 0.0316 µM): 46.2% and 48.9% and 45.8% | viability, T/C (compound 0.1 µM): 48.2% and 42% and 41% | viability, T/C (compound 0.316 µM): 31.7% and 22.4% and 24.1% | viability, T/C (compound 1 µM): 11.9% and 14.8% and 17.5% | IC50 (curve of compound): 53.7 nM and 38.1 nM and 25.9 nM

COc1c(OCCCN2CCOCC2)ccc2c3n(c(=NC(=O)c4cnc(N)nc4)nc12)CCN3 + CNC(C)C(=O)NC1CN(S(=O)(=O)c2cccc(S(=O)(=O)N3CCC4CCC(C(=O)NC(c5ccccc5)c5ccccc5)N4C(=O)C(NC(=O)C(C)NC)C3)c2)CCC2CCC(C(=O)NC(c3ccccc3)c3ccccc3)N2C1=O
IC50 [1]: 17.2 nM | IC50 [2]: 22 nM | IC50 [3]: 9.5 nM | IC50 [4]: 14.5 nM | IC50 [5]: 9.84 nM | viability, T/C (second compound 0.01 µM, first compound 0.00316 µM): 70.3% | viability, T/C (second compound 0.01 µM, first compound 0.01 µM): 58.8% | viability, T/C [6]: 37.7% | viability, T/C [7]: 35.7% | viability, T/C [8]: 19.1% | viability, T/C [9]: 12.2% | viability, T/C (second compound 0.0316 µM, first compound 0.00316 µM): 64.2% | viability, T/C (second compound 0.0316 µM, first compound 0.01 µM): 58.2% | viability, T/C [10]: 45.4% | viability, T/C [11]: 35.5% | viability, T/C [12]: 22.4% | viability, T/C [13]: 9.75% | viability, T/C (second compound 0.1 µM, first compound 0.00316 µM): 58.6% | viability, T/C (second compound 0.1 µM, first compound 0.01 µM): 49.9% | viability, T/C [14]: 38.5% | viability, T/C [15]: 31.6% | viability, T/C [16]: 19.3% | viability, T/C [17]: 10.5% | viability, T/C (second compound 0.316 µM, first compound 0.00316 µM): 64.6% | viability, T/C (second compound 0.316 µM, first compound 0.01 µM): 53.1% | viability, T/C [20]: 42.4% | viability, T/C [21]: 27.5% | viability, T/C [22]: 16.4% | viability, T/C [23]: 9.55% | viability, T/C (second compound 1 µM, first compound 0.00316 µM): 60.7% | viability, T/C (second compound 1 µM, first compound 0.01 µM): 47.1% | viability, T/C [26]: 40.9% | viability, T/C [27]: 27.3% | viability, T/C [28]: 14.9% | viability, T/C [29]: 7.78%
